According to patent US11702418B2, “SOS1 inhibitors” (priority 2019, dated 2023):
Counter-ions that a name gives are not always drawn.

These molecules were tested against recombinant human SOS1 polypeptide (amino acids 560-1049) (Homo sapiens (Human), UniProt Q07889) (assay: biochemical). Conditions: HTRF displacement, Cy5 labelled tracer, Morrison equation for competitive binding; read-out: Ki, Inhibition of Labeled Tracer Binding to SOS1.
Type: binding

Sequence of recombinant human SOS1 polypeptide (amino acids 560-1049) (Q07889 560-1049): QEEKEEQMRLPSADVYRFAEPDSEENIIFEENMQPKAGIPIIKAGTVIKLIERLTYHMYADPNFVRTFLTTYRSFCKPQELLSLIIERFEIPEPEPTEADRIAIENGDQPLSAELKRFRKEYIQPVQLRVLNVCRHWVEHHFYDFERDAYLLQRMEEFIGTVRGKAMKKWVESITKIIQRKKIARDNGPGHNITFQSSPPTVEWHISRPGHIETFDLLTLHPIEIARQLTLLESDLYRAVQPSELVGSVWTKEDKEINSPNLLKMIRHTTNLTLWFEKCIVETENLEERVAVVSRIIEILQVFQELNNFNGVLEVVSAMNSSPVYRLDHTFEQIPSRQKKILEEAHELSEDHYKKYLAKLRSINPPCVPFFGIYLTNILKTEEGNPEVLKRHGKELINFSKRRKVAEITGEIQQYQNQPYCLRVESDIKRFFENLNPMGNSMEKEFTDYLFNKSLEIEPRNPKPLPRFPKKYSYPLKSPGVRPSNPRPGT

| Molecule | Ki [nM] |
| --- | --- |
| COc1c(C#N)cccc1[C@@H](C)Nc1nnc(C)c2cnc(N3CCN4CCOCC4C3)cc12 (stereo in doubt) [Example 17-2, 3-((R)-1-((7-((R)-hexahydropyrazino[2,1-c][1,4]oxazin-8(1H)-yl)-4-methylpyrido[3,4-d]pyridazin-1-yl)amino)ethyl)-2-methoxybenzonitrile] | 12.5 |
| Cc1c(C#N)cccc1[C@@H](C)Nc1nnc(C)c2cc(F)c(N3CCN(C)CC3)cc12 [Example 18-3, (R)-3-(1-((6-fluoro-4-methyl-7-(4-methylpiperazin-1-yl)phthalazin-1-yl)amino)ethyl)-2-methylbenzonitrile] | 1.37 |

Same assay, conditions: read-out: Ki, Inhibition of Labeled Tracer Binding to SOS1

| Molecule | Ki [nM] |
| --- | --- |
| Cc1c([C@@H](C)Nc2nnc(C)c3ccc(N4CCC(N(C)C)C4)cc23)cccc1C(F)(F)F (stereo in doubt) [Example 10-27, 7-((R)-3-(dimethylamino)pyrrolidin-1-yl)-4-methyl-N-((R)-1-(2-methyl-3-(trifluoromethyl)phenyl)ethyl)phthalazin-1-amine hydrochloride salt] | 0.46 |

These molecules were tested on pERK in MKN1 cells (assay: cells). Conditions: Homo sapiens, MKN-1.
Type: cell-based

| Molecule | IC50 [nM] |
| --- | --- |
| Cc1c([C@@H](C)Nc2nnc(C)c3ccc(N4CCC(N(C)C)C4)cc23)cccc1C(F)(F)F (stereo in doubt) [Example 10-27, 7-((R)-3-(dimethylamino)pyrrolidin-1-yl)-4-methyl-N-((R)-1-(2-methyl-3-(trifluoromethyl)phenyl)ethyl)phthalazin-1-amine hydrochloride salt] | 154 |
| Cc1c([C@@H](C)Nc2nnc(C)c3ccc(C4CCNCC4)cc23)cccc1C(F)(F)F [Example 10-1, (R)-4-methyl-N-(1-(2-methyl-3-(trifluoromethyl)phenyl)ethyl)-7-(piperidin-4-yl)phthalazin-1-amine] | 183 |

Same assay, conditions: Homo sapiens, MKN-1, pERK inhibition, In-Cell Western; MKN1 or H358 cells (Table 24 does not say which); 0.5-1 hour incubation

| Molecule | IC50 [nM] |
| --- | --- |
| Cc1c([C@@H](C)Nc2nnc(CN)c3ccc(N4CCOCC4)cc23)cccc1C(F)(F)F [Example 14-2, (R)-4-(aminomethyl)-N-(1-(2-methyl-3-(trifluoromethyl)phenyl)ethyl)-7-morpholinophthalazin-1-amine] | 139 |

Same assay, conditions: Homo sapiens, MKN-1, pERK inhibition, In-Cell Western; MKN1 or H358 cells (Table 24 does not say which); 0.5-1 hour incubation; read-out: IC50

| Molecule | IC50 [nM] |
| --- | --- |
| COc1c(C#N)cccc1[C@@H](C)Nc1nnc(C)c2cnc(N3CCN4CCOCC4C3)cc12 (stereo in doubt) [Example 17-2, 3-((R)-1-((7-((R)-hexahydropyrazino[2,1-c][1,4]oxazin-8(1H)-yl)-4-methylpyrido[3,4-d]pyridazin-1-yl)amino)ethyl)-2-methoxybenzonitrile] | 50 |
| Cc1c([C@@H](C)Nc2nncc3ccc(N4CC(C(=O)N(C)C)C4)cc23)cccc1C(F)(F)F [Example 1-24, (R)-N,N-dimethyl-1-(4-((1-(2-methyl-3-(trifluoromethyl)phenyl)ethyl)amino)phthalazin-6-yl)azetidine-3-carboxamide] | 25 |
| Cc1c([C@@H](C)Nc2nncc3ccc(N4CCOCC4C)cc23)cccc1C(F)(F)F (stereo partly drawn) [Example 1-27, N-((R)-1-(2-methyl-3-(trifluoromethyl)phenyl)ethyl)-7-(3-methylmorpholino)phthalazin-1-amine] | 61 |
| Cc1c([C@@H](C)Nc2nncc3ccc(N4CCCN(C)CC4)cc23)cccc1C(F)(F)F [Example 1-29, (R)-7-(4-methyl-1,4-diazepan-1-yl)-N-(1-(2-methyl-3-(trifluoromethyl)phenyl)ethyl)phthalazin-1-amine] | 71 |
| Cc1c([C@@H](C)Nc2nncc3ccc(N4CCN(C)C(=O)C4)cc23)cccc1C(F)(F)F [Example 1-30, (R)-1-methyl-4-(4-((1-(2-methyl-3-(trifluoromethyl)phenyl)ethyl)amino)phthalazin-6-yl)piperazin-2-one] | 79 |
| Cc1c([C@@H](C)Nc2nncc3ccc(N4CC5CCN(C)CC5C4)cc23)cccc1C(F)(F)F (stereo partly drawn) [Example 1-31, N-((R)-1-(2-methyl-3-(trifluoromethyl)phenyl)ethyl)-7-(5-methyloctahydro-2H-pyrrolo[3,4-c]pyridin-2-yl)phthalazin-1-amine] | 83 |
| Cc1c([C@@H](C)Nc2nncc3ccc(N4CCC5(CCCN(C)C5)C4)cc23)cccc1C(F)(F)F (stereo partly drawn) [Example 1-34, N-((R)-1-(2-methyl-3-(trifluoromethyl)phenyl)ethyl)-7-(7-methyl-2,7-diazaspiro[4.5]decan-2-yl)phthalazin-1-amine] | 119 |
| Cc1c([C@@H](C)Nc2nncc3ccc(N4CCC5C(CCN5C)C4)cc23)cccc1C(F)(F)F (stereo partly drawn) [Example 1-35, N-((R)-1-(2-methyl-3-(trifluoromethyl)phenyl)ethyl)-7-(1-methyloctahydro-5H-pyrrolo[3,2-c]pyridin-5-yl)phthalazin-1-amine] | 123 |
| Cc1c([C@@H](C)Nc2nncc3ccc(N4CCCC(N(C)C)C4)cc23)cccc1C(F)(F)F (stereo partly drawn) [Example 1-36, 7-(3-(dimethylamino)piperidin-1-yl)-N-((R)-1-(2-methyl-3-(trifluoromethyl)phenyl)ethyl)phthalazin-1-amine] | 125 |
| Cc1c([C@@H](C)Nc2nncc3ccc(N4CCC5(CCN(C)C5)C4)cc23)cccc1C(F)(F)F (stereo partly drawn) [Example 1-39, N-((R)-1-(2-methyl-3-(trifluoromethyl)phenyl)ethyl)-7-(7-methyl-2,7-diazaspiro[4.4]nonan-2-yl)phthalazin-1-amine] | 170 |
| Cc1c([C@@H](C)Nc2nncc3ccc(N4CCOC5(CCOC5)C4)cc23)cccc1C(F)(F)F (stereo partly drawn) [Example 1-41, N-((R)-1-(2-methyl-3-(trifluoromethyl)phenyl)ethyl)-7-(2,6-dioxa-9-azaspiro[4.5]decan-9-yl)phthalazin-1-amine] | 195 |
| Cc1c([C@@H](C)Nc2nncc3ccc(N4CCC5C(CCCN5C)C4)cc23)cccc1C(F)(F)F (stereo partly drawn) [Example 1-42, N-((R)-1-(2-methyl-3-(trifluoromethyl)phenyl)ethyl)-7-(1-methyloctahydro-1,6-naphthyridin-6(2H)-yl)phthalazin-1-amine] | 201 |
| Cc1c([C@@H](C)Nc2nncc3ccc(N4CCn5c(nc6c5CCCC6)C4)cc23)cccc1C(F)(F)F [Example 1-45, (R)-7-(3,4,6,7,8,9-hexahydrobenzo[4,5]imidazo[1,2-a]pyrazin-2(1H)-yl)-N-(1-(2-methyl-3-(trifluoromethyl)phenyl)ethyl)phthalazin-1-amine] | 335 |
| Cc1c([C@@H](C)Nc2nncc3ccc(N4CCn5c(nc6ccccc65)C4)cc23)cccc1C(F)(F)F [Example 1-46, (R)-7-(3,4-dihydrobenzo[4,5]imidazo[1,2-a]pyrazin-2(1H)-yl)-N-(1-(2-methyl-3-(trifluoromethyl)phenyl)ethyl)phthalazin-1-amine] | 341 |
| Cc1c([C@@H](C)Nc2nncc3ccc(N4CCCC(N5CCC5)C4)cc23)cccc1C(F)(F)F (stereo partly drawn) [Example 1-49, 7-(3-(azetidin-1-yl)piperidin-1-yl)-N-((R)-1-(2-methyl-3-(trifluoromethyl)phenyl)ethyl)phthalazin-1-amine] | 426 |
| Cc1c([C@@H](C)Nc2nncc3ccc(N4CCCCC(N(C)C)C4)cc23)cccc1C(F)(F)F (stereo partly drawn) [Example 1-50, 7-(3-(dimethylamino)azepan-1-yl)-N-((R)-1-(2-methyl-3-(trifluoromethyl)phenyl)ethyl)phthalazin-1-amine] | 453 |
| C[C@@H](Nc1nncc2ccc(N3CCOCC3)cc12)c1cc(-c2ccccc2CN(C)C)cs1 [Example 2-1, (R)—N-(1-(4-(2-((dimethylamino)methyl)phenyl)thiophen-2-yl)ethyl)-7-morpholinophthalazin-1-amine] | 308 |
| Cc1c([C@@H](C)Nc2nncc3ccc(OC4CCN(C)C4)cc23)cccc1C(F)(F)F (stereo partly drawn) [Example 2-7, N-((R)-1-(2-methyl-3-(trifluoromethyl)phenyl)ethyl)-7-((1-methylpyrrolidin-3-yl)oxy)phthalazin-1-amine] | 142 |
| COCCN1CCC(Oc2ccc3cnnc(N[C@H](C)c4cccc(C(F)(F)F)c4C)c3c2)CC1 [Example 2-9, (R)-7-((1-(2-methoxyethyl)piperidin-4-yl)oxy)-N-(1-(2-methyl-3-(trifluoromethyl)phenyl)ethyl)phthalazin-1-amine] | 172 |
| Cc1c([C@@H](C)Nc2nncc3ccc(OC4CC5CCC(C4)N5C)cc23)cccc1C(F)(F)F (stereo partly drawn) [Example 2-10, N-((R)-1-(2-methyl-3-(trifluoromethyl)phenyl)ethyl)-7-((8-methyl-8-azabicyclo[3.2.1]octan-3-yl)oxy)phthalazin-1-amine] | 223 |
| COc1nnc(N[C@H](C)c2cccc(C(F)(F)F)c2C)c2cc(N3CCNCC3)ccc12 [Example 9-1, (R)-4-methoxy-N-(1-(2-methyl-3-(trifluoromethyl)phenyl)ethyl)-7-(piperazin-1-yl)phthalazin-1-amine] | > 10000 |
| Cc1cc(C)n(-c2ccc3c(C)nnc(N[C@H](C)c4cccc(C(F)(F)F)c4C)c3c2)n1 [Example 10-14, (R)-7-(3,5-dimethyl-1H-pyrazol-1-yl)-4-methyl-N-(1-(2-methyl-3-(trifluoromethyl)phenyl)ethyl)phthalazin-1-amine] | 1150 |
| Cc1c([C@@H](C)Nc2nnc(C)c3ccc(-n4ncc5c4CNC5)cc23)cccc1C(F)(F)F [Example 10-15, (R)-7-(5,6-dihydropyrrolo[3,4-c]pyrazol-1(4H)-yl)-4-methyl-N-(1-(2-methyl-3-(trifluoromethyl)phenyl)ethyl)phthalazin-1-amine] | 844 |
| Cc1c([C@@H](C)Nc2nnc(C)c3ccc(-n4cccn4)cc23)cccc1C(F)(F)F [Example 10-17, (R)-4-methyl-N-(1-(2-methyl-3-(trifluoromethyl)phenyl)ethyl)-7-(1H-pyrazol-1-yl)phthalazin-1-amine] | 2630 |
| Cc1nnc(N[C@H](C)c2ccc(Cl)cc2Cl)c2cc(N3CCOCC3)ccc12 [Example 10-20, (R)-N-(1-(2,4-dichlorophenyl)ethyl)-4-methyl-7-morpholinophthalazin-1-amine] | 1650 |
| Cc1nnc(N[C@H](C)c2ccc(Cl)cc2Cl)c2cc(N3CCNCC3)ccc12 [Example 10-21, (R)-N-(1-(2,4-dichlorophenyl)ethyl)-4-methyl-7-(piperazin-1-yl)phthalazin-1-amine] | 444 |
| Cc1c([C@@H](C)Nc2nnc(C)c3cnc(N4C[C@@H](C)O[C@@H](C)C4)cc23)cccc1C(F)(F)F [Example 12-4] | 370 |
| Cc1c([C@@H](C)Nc2nnc(C)c3cnc(N4C[C@@H](C)O[C@H](C)C4)cc23)cccc1C(F)(F)F [Example 12-5] | 850 |

Same assay, conditions: read-out: IC50

| Molecule | IC50 [nM] |
| --- | --- |
| 4-methyl-N—((R)-1-(5-(2-((methylamino)methyl(phenyl)thiophen-2-yl)ethyl)-7-(((S)-tetrahydrofuran-3-yl)oxy)phthalazin-1-amine [Example 7-1] | 79 |
